≈ marks a conversion by molar mass, not a printed value.

For this series the following is noted: buffer; pH 7.4; 200.0 µM.
Consider `COc1ccc(NC(=O)NC2CCCc3ccccc32)cc1` (stereo not drawn), for which the solubility (kinetic) worked out at 1.9 µg/mL (≈ 6.41 µM).

As to `Cc1cccc(CC(=O)N2CCCC2)c1`, the solubility (kinetic) worked out at 28.7 µg/mL (≈ 141 µM). Compared with the last compound, the solubility kinetic is about 15-fold higher.

The compound `O=C(Nc1ccc2nc(N3CCOCC3)sc2c1)c1ccccc1` yielded a kinetic solubility of 7.2 µg/mL (≈ 21.2 µM).

For the compound `CCOC(=O)CNC(=O)c1ccc(Cl)s1`, the solubility (kinetic) is greater than 37.2 µg/mL.

Compound `CCOC(=O)c1ccc2nc(C)c(C)nc2c1` gave a kinetic solubility of 31.3 µg/mL (≈ 136 µM).

The compound `CCOc1ccc(C(=O)O/N=C(\N)c2ccccn2)cc1` yielded a solubility (kinetic) of 5.2 µg/mL (≈ 18.2 µM).

`CCOC(=O)C1(CC2CC2)CCN(C(=O)c2cccnc2C)CC1` registered a kinetic solubility greater than 49.6 µg/mL.

In turn, `Cc1ccc(S(=O)(=O)NC2CCCCCCC2)cc1` showed a solubility (kinetic) of 24.3 µg/mL (≈ 86.3 µM).

For the compound `CC1Oc2ccccc2N(CC(=O)Nc2ccccc2F)C1=O` (stereo not drawn), the kinetic solubility came to 1.2 µg/mL (≈ 3.82 µM). Against the preceding compound, the solubility kinetic is about 20-fold lower.

`Cl.O=[N+]([O-])c1ccc(N2CCCNCC2)c2ncccc12` gave a solubility (kinetic) of 36.7 µg/mL.

Turning to `COc1cc(C(=S)N2CCOCC2)cc(OC)c1O`, the kinetic solubility was greater than 42.5 µg/mL.

Consider `CCCCOc1ccc(OCCCN2CCOCC2)cc1.Cl`, for which the kinetic solubility is greater than 49.5 µg/mL.

Turning to `O=C(COC(=O)Cc1ccc(Cl)cc1)NCc1cccs1`, the solubility (kinetic) was 35.1 µg/mL (≈ 108 µM).

Consider `O=C(Cc1ccccc1)OCC(=O)c1cccc([N+](=O)[O-])c1`, for which the solubility (kinetic) is greater than 44.9 µg/mL.

The compound `Cc1c(Cc2ccccc2)sc(NC(=O)C(C)(C)C)c1C(N)=O` had a solubility (kinetic) of 17.7 µg/mL (≈ 53.6 µM).

In turn, `CCN(CC)C(=S)Nc1ccc(OC(F)F)cc1` registered a solubility (kinetic) of 40.3 µg/mL (≈ 147 µM).

In turn, `Cc1cc(C(=O)OCC(=O)NC(C)c2ccc(F)cc2)c(C)o1` (stereo not drawn) returned a kinetic solubility of 11.4 µg/mL (≈ 35.7 µM).

`O=C(CCl)N1CCN(C(=O)C2COc3ccccc3O2)CC1` (stereo not drawn) gave a kinetic solubility greater than 48.7 µg/mL.

Compound `Cc1ccc2oc(=O)n(CCCOc3ccccc3C)c2c1` returned a kinetic solubility of 0.9 µg/mL (≈ 3.03 µM).

`Cc1ccc(C(=O)O/N=C(\N)c2ccccn2)c(Cl)c1` gave a kinetic solubility of 42.4 µg/mL (≈ 146 µM).

With `CCCCn1c(=N)n(CC(O)c2ccccc2)c2ccccc21.Cl` (stereo not drawn), the solubility (kinetic) is greater than 51.9 µg/mL.

On to `CN(C(=O)NC1CCCCC1)c1ccccc1`, for which the solubility (kinetic) is greater than 34.8 µg/mL.

`CCC(C)Nc1nc(N)c([N+](=O)[O-])c(NC2CCCCC2)n1` (stereo not drawn) returned a kinetic solubility of less than 0.1 µg/mL.

`O=c1[nH]cnc2ncc(-c3ccc(O)cc3)nc12` gave a solubility (kinetic) greater than 36 µg/mL.

Regarding `NC(=O)c1ccc(N2CCC(C(N)=O)CC2)c([N+](=O)[O-])c1`, the solubility (kinetic) was found to be 38.4 µg/mL (≈ 131 µM).

For the compound `Cc1ccc(NC(=S)Nc2cc(C)on2)cc1`, the solubility (kinetic) stood at 31.8 µg/mL (≈ 129 µM).

In turn, `O=C(NC(=S)NC(CO)Cc1ccccc1)c1ccc(F)cc1` (stereo not drawn) yielded a solubility (kinetic) of 4.9 µg/mL (≈ 14.7 µM).

`O=Cc1c(Cl)nc2ccccn2c1=O` returned a kinetic solubility greater than 31.3 µg/mL.

`O=[N+]([O-])c1ccc(C2NS(=O)(=O)N=C3CCCCCN32)cc1` (stereo not drawn) displayed a kinetic solubility greater than 48.7 µg/mL.

Compound `CCN(CC)S(=O)(=O)c1cccc(NC2=NCCCCC2)c1` showed a solubility (kinetic) of 46.8 µg/mL (≈ 145 µM).

In turn, `COCCNS(=O)(=O)c1cc(OC)ccc1OC` yielded a solubility (kinetic) greater than 41.3 µg/mL.

With `O=[N+]([O-])c1ccc(Cl)c(NC2=NCCCCC2)c1`, the solubility (kinetic) is greater than 40.2 µg/mL.

In turn, `COc1ccc(S(=O)(=O)N2CCCCCC2)cc1C(=O)NCc1ccco1` yielded a kinetic solubility of 46.5 µg/mL (≈ 118 µM).

Compound `Cc1cc(OCCCN2CCCC2)ccc1Cl` gave a kinetic solubility of 26.8 µg/mL (≈ 106 µM).

In turn, `CCN(C(=O)c1ccco1)c1nnc(-c2cccnc2)s1` displayed a kinetic solubility greater than 45.1 µg/mL.

Consider `O=C1CSCC(=O)N1Cc1ccc(Cl)cc1Cl`, for which the solubility (kinetic) worked out at 38.2 µg/mL (≈ 132 µM).

The compound `Cc1cc(Nc2cc(Cl)cc(Cl)c2)nc(N)n1` returned a solubility (kinetic) of 20 µg/mL (≈ 74.3 µM).

As for `CC#CC[N+](C)(C)CCCCCCCC.[Br-]`, the solubility (kinetic) was greater than 43.5 µg/mL.

In turn, `CCOc1cnc(-c2c(-c3c(F)cccc3Cl)noc2C)o1` came in with a kinetic solubility of 9.1 µg/mL (≈ 28.2 µM).

`N#Cc1ccc(C(=O)Nc2cccc(NC(=O)c3ccco3)c2)c(F)c1` returned a solubility (kinetic) of 2 µg/mL (≈ 5.73 µM).

The compound `COc1ccc2oc(C(=O)OCC(=O)N3CCC(C)CC3)c(C)c2c1` showed a kinetic solubility of 41.8 µg/mL (≈ 121 µM). Against the preceding compound, the solubility kinetic is about 21-fold higher.

As for `COCC(=O)Nc1ccc(OC)c(Cl)c1`, the solubility (kinetic) was 33.8 µg/mL (≈ 147 µM).

Consider `CC(=O)Nc1ccc2sc(NC(=O)CN3CCOCC3)nc2c1`, for which the kinetic solubility was greater than 50.2 µg/mL.

On to `Cc1csc(NC(=O)C2CC(=O)N(c3ccc(C)c(C)c3)C2)n1` (stereo not drawn), for which the kinetic solubility is 42.4 µg/mL (≈ 129 µM).

Regarding `Nc1ccccc1-c1nc2ccccc2[nH]c1=O`, the solubility (kinetic) worked out at 33.8 µg/mL (≈ 142 µM).

Regarding `O=C(CCC(=O)NC12CC3CC(CC(C3)C1)C2)NC1CCCCC1`, the kinetic solubility worked out at 17.2 µg/mL (≈ 51.7 µM).

`Nc1nc(Nc2ccccc2)sc1C(=O)c1ccccc1` had a solubility (kinetic) of 4.3 µg/mL (≈ 14.6 µM).

Turning to `CCN1C(=O)C(=O)N(CC(=O)N(C)CC(=O)Nc2ccccc2C(F)(F)F)C1=O`, the kinetic solubility is greater than 62.1 µg/mL.

Regarding `O=c1[nH]c2ccccc2o1`, the solubility (kinetic) is greater than 20.3 µg/mL.

Compound `CC(C)N1CCN(C(=O)c2ccc([N+](=O)[O-])cc2)CC1` yielded a solubility (kinetic) of 27.3 µg/mL (≈ 98.4 µM).

With `CC1CCCC(NC(=O)COC(=O)c2ccccc2[N+](=O)[O-])C1C` (stereo not drawn), the kinetic solubility was 48.6 µg/mL (≈ 145 µM).

In the case of `O=C(COC(=O)c1c[nH]c2ccccc12)NC1CCCCC1`, the solubility (kinetic) was 13.4 µg/mL (≈ 44.6 µM).

`OC(C#CCN1CCCCCC1)(c1ccccc1)c1cccnc1` (stereo not drawn) returned a solubility (kinetic) greater than 48.1 µg/mL.
